According to US20220380314A1, “SUBSTITUTED, SATURATED AND UNSATURATED N-HETEROCYCLIC CARBOXAMIDES AND RELATED COMPOUNDS FOR THEIR USE IN THE TREATMENT OF MEDICAL DISORDERS” (Bial - R&D Investments, S.A., priority 2019, published 2022):
In brackets after ≈: the same amount, converted by molar mass. Read-outs that look alike come from different tables or passages of the source.

What was measured:
[1] = Compound solubility in water; format: physicochemical
acid ceramidase (hACR) = molecular target: T1, acid ceramidase (hACR) (Homo sapiens, UniProt Q13510); assay: Acid ceramidase inhibition, biochemical fluorescent assay with cell lysates overexpressing acid ceramidase, substrate Rbm14-12
T1 construct: expressed in transfected cells; cell lysate used
T1 sequence (Q13510 143-395 limits assumed): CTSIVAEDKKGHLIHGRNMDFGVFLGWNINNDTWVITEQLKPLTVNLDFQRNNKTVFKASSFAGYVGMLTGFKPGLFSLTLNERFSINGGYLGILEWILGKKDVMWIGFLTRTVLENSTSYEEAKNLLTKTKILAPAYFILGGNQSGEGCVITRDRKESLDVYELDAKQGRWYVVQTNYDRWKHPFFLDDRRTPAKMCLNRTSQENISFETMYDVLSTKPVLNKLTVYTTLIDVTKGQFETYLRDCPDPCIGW
T1 sequence (Q13510 22-142 limits assumed): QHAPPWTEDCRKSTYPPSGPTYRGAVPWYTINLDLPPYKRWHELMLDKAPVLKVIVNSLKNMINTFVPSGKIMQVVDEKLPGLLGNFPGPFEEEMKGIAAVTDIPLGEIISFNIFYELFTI
Procedure, shortened: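 Enzyme source was lysate (10 µg protein) from cells overexpressing acid ceramidase, preincubated 1 hr at RT with compound dose series in 25 mM NaAc, 100 mM NaCl, pH 4.5. Rbm14-12 (6.3 μM final) reacted 1 hr at RT; stop buffer (methanol, NaIO4, glycine, pH 10.6) 1 hr, fluorescence ex360/em446; IC50 from four-parameter fit.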

[2] = cell lysates overexpressing acid ceramidase, 1 hr preincubation at RT, pH 4.5, substrate Rbm14-12 6.3 μM, read-out: hACR IC50

| solubility [1] | IC50 (acid ceramidase (hACR); [2]) | SMILES | IC50 (acid ceramidase (hACR)) |
| --- | --- | --- | --- |
| 7.1 µM (≈ 2.6 µg/mL) | > 1000 nM | CC1(C)CC(c2ccccc2)CCN1C(=O)NCCOCc1ccccc1 (stereo not shown) [Example 75, N-(2-Benzyloxyethyl)-2,2-dimethyl-4-phenylpiperidine-1-carboxamide] |  |
| 64.3 µM (≈ 19.6 µg/mL) | > 1000 nM | CCOCCNC(=O)N1CCC(c2ccccc2)CC1(C)C (stereo not shown) [Example 77, N-(2-Ethoxyethyl)-2,2-dimethyl-4-phenylpiperidine-1-carboxamide] |  |
| 6.4 µM (≈ 2.34 µg/mL) | > 1000 nM | CC1(C)CC(c2ccccn2)CCN1C(=O)NCCCCc1ccccc1 (stereo not shown) [Example 79, 2,2-Dimethyl-N-(4-phenylbutyl)-4-(2-pyridyl)piperidine-1-carboxamide] |  |
| > 100 µM | < 200 nM | CC1(C)CC(N2CCCCC2)CCN1C(=O)NCCCCc1ccccc1 (stereo not shown) [Example 83, 2,2-Dimethyl-N-(4-phenylbutyl)-4-(1-piperidyl)piperidine-1-carboxamide] |  |
| 31 µM (≈ 12.6 µg/mL) | < 200 nM | CC1(C)CC(N2CCC(F)(F)CC2)CCN1C(=O)NCCCCc1ccccc1 (stereo not shown) [Example 86, 4-(4,4-Difluoro-1-piperidyl)-2,2-dimethyl-N-(4-phenylbutyl)piperidine-1-carboxamide] |  |
| 0.01 µM | > 1000 nM | CN(c1ccccc1)C1CCN(C(=O)NCCCCc2ccccc2)C(C)(C)C1.Cl (stereo not shown) [Example 88, 2,2-Dimethyl-4-(N-methylanilino)-N-(4-phenylbutyl)piperidine-1-carboxamide hydrochloride] |  |
| 0.01 µM (≈ 0.00381 µg/mL) | < 200 nM | CC1(C)CC(Oc2ccccc2)CCN1C(=O)NCCCCc1ccccc1 (stereo not shown) [Example 89, 2,2-Dimethyl-4-phenoxy-N-(4-phenylbutyl)piperidine-1-carboxamide] |  |
| 93 µM (≈ 30 µg/mL) | < 200 nM | CCCCCNC(=O)N1C(c2ccc(F)cc2)COCC1(C)C (stereo not shown) [Example 137, 5-(4-Fluorophenyl)-3,3-dimethyl-N-pentylmorpholine-4-carboxamide] |  |
| 71.6 µM (≈ 27.2 µg/mL) | < 200 nM | CN1CC(c2ccccc2)N(C(=O)NCCCCc2ccccc2)C(C)(C)C1 (stereo not shown) [Example 165, 2,2,4-Trimethyl-6-phenyl-N-(4-phenylbutyl)piperazine-1-carboxamide] |  |

Second part, the compound before the results:

| SMILES | solubility [1] | IC50 (acid ceramidase (hACR); [2]) | IC50 (acid ceramidase (hACR)) |
| --- | --- | --- | --- |
| CCCCCNC(=O)N1[C@H](C)CN(C2CC2)C[C@@H]1C [Example 115, (2S,6R)-4-cyclopropyl-2,6-dimethyl-N-pentylpiperazine-1-carboxamide] | 69.1 µM (≈ 18.5 µg/mL) | < 200 nM |  |
| CCCCCNC(=O)N1C(C)COCC1(C)C (stereo not shown) [Example 132, 3,3,5-Trimethyl-N-pentylmorpholine-4-carboxamide] | 88.3 µM (≈ 21.4 µg/mL) | < 200 nM |  |
| COc1ccc(C2COCC(C)(C)N2C(=O)NCC2CC2)cc1 (stereo not shown) [Example 144, N-(Cyclopropylmethyl)-5-(4-methoxyphenyl)-3,3-dimethylmorpholine-4-carboxamide] | 97.8 µM (≈ 31.1 µg/mL) | < 200 nM |  |
| COc1ccc(C2COCC(C)(C)N2C(=O)NCC2CCOCC2)cc1 (stereo not shown) [Example 145, 5-(4-Methoxyphenyl)-3,3-dimethyl-N-(tetrahydropyran-4-ylmethyl)morpholine-4-carboxamide] | 91.3 µM (≈ 33.1 µg/mL) |  | 200 to 1000 nM |
| COc1ccc(C2COCC(C)(C)N2C(=O)NCCC(F)(F)F)cc1 (stereo not shown) [Example 153, 5-(4-Methoxyphenyl)-3,3-dimethyl-N-(3,3,3-trifluoropropyl)morpholine-4-carboxamide] | 79.2 µM (≈ 28.5 µg/mL) | 200 to 1000 nM |  |
| COc1ccc(C2COCC(C)(C)N2C(=O)NCCF)cc1 (stereo not shown) [Example 154, N-(2-Fluoroethyl)-5-(4-methoxyphenyl)-3,3-dimethylmorpholine-4-carboxamide] | 92.9 µM (≈ 28.8 µg/mL) | 200 to 1000 nM |  |
| CCCCCNC(=O)N1C(c2ccc(OC)cc2)COCC1(C)C (stereo not shown) [Example 156, 5-(4-Methoxyphenyl)-3,3-dimethyl-N-pentylmorpholine-4-carboxamide] | 91 µM (≈ 30.4 µg/mL) | < 200 nM |  |
| COc1ccc(C2COCC(C)(C)N2C(=O)NCCOCC2CC2)cc1 (stereo not shown) [Example 157, N-[2-(Cyclopropylmethoxy)ethyl]-5-(4-methoxyphenyl)-3,3-dimethylmorpholine-4-carboxamide] | > 100 µM | < 200 nM |  |
